Consider 5 molecules from patent publication US4840949A, “Oxadiazole-alkyl-purine derivatives useful as antitussive agents” (Chinoin Gyogyszer Es Vegyeszeti Termekek Gyara Rt., priority 1986, dated 1989).

Data set [1] is described as follows: in vivo. As to conditions: rat, ip.
Data set [2] can be described thus: Coughing caused by mechanical stimulation of the trachea bifurcatio on rabbits narcotised by nembutal, i.v. administration. The class given is in vivo, rabbit.
Data set [3] in a line: Alleviation of coughing caused by 15% citric acid spray on guinea pig, oral administration. As to conditions: for ED50: Cavia porcellus, po; for absolute strength of the antitussive effect, in words: Table I. The class given is in vivo. The method, then: The aforesaid facts are supported by Table I wherein the ID50 mg/kg values of 3,7-dihydro-3-methyl-7-[(5-methyl-1,2,4-oxadiazole-3-yl)-methyl]-1H-purine-2,6-dione (the most simple representative of the compounds of the Formula I); two known 1,2,4-oxadiazole-type antitussive agents, codeine and dextromethorphane (morphine type reference compounds) in the alleviation of coughing caused by a 15% citric acid spray are disclosed. […] As test animal guinea pigs are used. (Method: Arzneimittel Forschung 1966, 617-621). Test compound No. 5 is 2-(3-methyl-xanthine-7-yl)-acetamidoxime (a starting material of the Formula II).
Alleviation of coughing caused by 15% citric acid spray on
guinea pig, the test compounds are administered orally
Antitussive effect of p.o. administered 3,7-dihydro-3-methyl-7-
[(5-methyl-1,2,4-oxadiazole-3-yl)-methyl]-lH--purine-2,6-dione
on coughing induced by 15% citric acid spray on guinea pig

Where [4] appears, read: 1 hour pre-treatment, 15% citric acid spray, read-out: Antitussive effect, measured 1 hour after oral administration ID50.

Molecules are shown by their SMILES. Counter-ions that a name gives are not always drawn.

The LD50 is the dose expected to kill half of the subjects tested. Low readings indicate a more toxic substance, high ones a less toxic substance. `Cc1nc(Cn2cnc3c2c(=O)[nH]c(=O)n3C)no1` [Compound 1, 3,7-dihydro-3-methyl-7-[(5-methyl-1,2,4-oxadiazole-3-yl)-methyl]-1H-purine-2,6-dione] registered a median lethal dose (LD50) in data set [1] of 700 mg/kg. The ED50 in data set [2] (Oryctolagus cuniculus, iv, 2 min, rabbit, i.v., 2 minutes after administration, calculated according to Lichfield-Wilcoxon) was 2.24 mg/kg; in data set [3] (setting [4]), 8.5 mg/kg; in data set [3] (pre-treatment time 2.0 h, read-out: ID50, pre-treatment time 2.0 h), 14.4 mg/kg; in data set [3] (pre-treatment time 4.0 h, read-out: ID50, pre-treatment time 4.0 h) it was 13.8 mg/kg; in data set [3] (pre-treatment time 8.0 h, read-out: ID50, pre-treatment time 8.0 h), 32.6 mg/kg; in data set [3] (read-out: ID50, pre-treatment time 0.5 h, p.o., pre-treatment time 0.5 h) it was 7.5 mg/kg. Further, the “decrease of coughing caused by mechanical stimulation” value in data set [2] (rabbit, 0.5-8.0 mg/kg i.v.) was “decreases in dose-dependant manner”. In addition, the “therapeutical index relative to reference compounds Nos. 4 and 6” value in data set [2] (taking into consideration the I.O. toxicity data) is recorded as “ten times more favorable”. In addition, the “absolute strength of the antitussive effect, in words” value in data set [3] (p.o.) was “significantly higher than that of reference compounds Nos. 2-4 and 6”. Moreover, in data set [3] (p.o., Table I/A), the “duration of oral antitussive effect” value is listed as “very long-lasting”.

Take `Cc1nc(Cn2cnc3c2c(=O)n(C)c(=O)n3C)no1` [Compound 2, 3,7-dihydro-1,3-dimethyl-7-[(5-methyl-1,2,4-oxadiazole-3-yl)-methyl]-1H--purine-2,6-dione, reference compound]: the ED50 in data set [3] (setting [4]) stood at 111 mg/kg.

Regarding `COc1ccc2c3c1O[C@H]1[C@@H](O)C=C[C@H]4[C@@H](C2)N(C)CC[C@@]341` [Compound 4, Codeine.HCl, reference compound], in data set [1], the LD50 was 72.4 mg/kg. For the same molecule, the “antitussive effect relative to compound No. 1” value in data set [2] (rabbit, i.v.) is recorded as “the same or a somewhat lower antitussive effect”.

For the molecule `Cn1c(=O)[nH]c(=O)c2c1ncn2CC(N)=NO` [Compound 5, 2-(3-methyl-xanthine-7-yl)-acetamidoxime, reference compound], the “Antitussive effect at 50 mg/kg” value in data set [3] (50 mg/kg p.o., 1 hour after administration) was “inactive”. Further, the “absolute strength of the antitussive effect, in words” value in data set [3] (p.o.) is on record as “practically negligible”.

For `COc1ccc2c(c1)[C@]13CCCC[C@@H]1[C@H](C2)N(C)CC3` [Compound 6, Dextromethorphan, reference compound], the “antitussive effect relative to compound No. 1” value in data set [2] (rabbit, i.v.) is recorded as “the same or a somewhat lower antitussive effect”.
